In patent publication US20250270213A1, “PI3Ka INHIBITORS” (Synnovation Therapeutics, Inc., priority 2022, published 2025):

System: T47D (PIK3CA H1047R) cells
Experiment: pS473 AKT assay with 2.5% FBS, T47D cells
Assay type: cell-based
Conditions: Homo sapiens, pSer473 AKT, DMEM with 2.5% FBS, 2 h treatment, read-out: T47D_IC50
How it was run: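 T47D (PIK3CA H1047R) cells were switched to DMEM with 2.5% FBS and exposed to compounds for 2 h. After paraformaldehyde fixation, pSer473 AKT was detected by in-cell ELISA (rabbit primary, HRP anti-rabbit secondary, chemiluminescence); IC50 values were fitted from the concentration series.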

Cc1cc(C(C)Nc2ccc(Cl)nc2-c2cnn(C)c2)c2c(c1)c(=O)n(C)c1c2cnn1C1CCN(C[C@H](C)O)CC1 (stereo partly drawn) [Compound 174, 9-[1-[[6-chloro-2-(1-methylpyrazol-4-yl)-3-pyridyl]amino]ethyl]-3-[1-[(2S)-2-hydroxypropyl]-4-piperidyl]-4,7-dimethyl-pyrazolo[3,4-c]isoquinolin-5-one]
IC50: < 1 µM

Cc1cc(C(C)Nc2ccc(Cl)nc2-c2ncn(C)n2)c2c(c1)c(=O)n(C)c1c2cnn1C1CCN(CC(C)(C)O)CC1 (stereo not drawn) [Compound 175, 9-(1-((6-chloro-2-(1-methyl-1H-1,2,4-triazol-3-yl)pyridin-3-yl)amino)ethyl)-3-(1-(2-hydroxy-2-methylpropyl)piperidin-4-yl)-4,7-dimethyl-3,4-dihydro-5H-pyrazolo[3,4-c]isoquinolin-5-one]
IC50: < 1 µM

Cc1cc(C(C)Nc2ccc(Cl)nc2-c2ncn(C)n2)c2c(c1)c(=O)n(C)c1c2cnn1C1CCNCC1 (stereo not drawn) [Compound 176, 9-(1-((6-Chloro-2-(1-methyl-1H-1,2,4-triazol-3-yl)pyridin-3-yl)amino)ethyl)-4,7-dimethyl-3-(piperidin-4-yl)-3,4-dihydro-5H-pyrazolo[3,4-c]isoquinolin-5-one]
IC50: < 1 µM

Cc1cc(C(C)Nc2ccc(Cl)nc2-c2ncn(C)n2)c2c(c1)c(=O)n(C)c1c2cnn1C1CCN(CCO)CC1 (stereo not drawn) [Compound 177, 9-[1-[[6-Chloro-2-(1-methyl-1,2,4-triazol-3-yl)-3-pyridyl]amino]ethyl]-3-[1-(2-hydroxyethyl)-4-piperidyl]-4,7-dimethyl-pyrazolo[3,4-c]isoquinolin-5-one]
IC50: < 1 µM

Cc1cc(C(C)Nc2ccc(Cl)nc2-c2ncn(C)n2)c2c(c1)c(=O)n(C)c1c2cnn1C1CCN(Cc2nccn2C)CC1 (stereo not drawn) [Compound 178, 9-(1-((6-chloro-2-(1-methyl-1H-1,2,4-triazol-3-yl)pyridin-3-yl)amino)ethyl)-4,7-dimethyl-3-(1-((1-methyl-1H-imidazol-2-yl)methyl)piperidin-4-yl)-3,4-dihydro-5H-pyrazolo[3,4-c]isoquinolin-5-one]
IC50: < 1 µM

Cc1cc(C(C)Nc2ccc(Cl)nc2-c2ncn(C)n2)c2c(c1)c(=O)n(C)c1c2cnn1C1CCN(C2COC2)CC1 (stereo not drawn) [Compound 179, 9-(1-((6-chloro-2-(1-methyl-1H-1,2,4-triazol-3-yl)pyridin-3-yl)amino)ethyl)-4,7-dimethyl-3-(1-(oxetan-3-yl)piperidin-4-yl)-3,4-dihydro-5H-pyrazolo[3,4-c]isoquinolin-5-one]
IC50: < 1 µM

Cc1cc(C(C)Nc2ccc(Cl)nc2-c2ncn(C)n2)c2c(c1)c(=O)n(C)c1c2cnn1C1CCN(CCC#N)CC1 (stereo not drawn) [Compound 180, 3-[4-[9-[1-[[6-Chloro-2-(1-methyl-1,2,4-triazol-3-yl)-3-pyridyl]amino]ethyl]-4,7-dimethyl-5-oxo-pyrazolo[3,4-c]isoquinolin-3-yl]-1-piperidyl]propanenitrile]
IC50: < 1 µM

Cc1cc(C(C)Nc2ccc(Cl)nc2-c2ncn(C)n2)c2c(c1)c(=O)n(C)c1c2cnn1C1CCN(CC(F)F)CC1 (stereo not drawn) [Compound 181, 9-(1-((6-Chloro-2-(1-methyl-1H-1,2,4-triazol-3-yl)pyridin-3-yl)amino)ethyl)-3-(1-(2,2-difluoroethyl)piperidin-4-yl)-4,7-dimethyl-3,4-dihydro-5H-pyrazolo[3,4-c]isoquinolin-5-one]
IC50: < 1 µM

CC(=O)N1CCC(n2ncc3c4c(C(C)Nc5ccc(Cl)nc5-c5cnn(C)c5)cc(C)cc4c(=O)n(C)c32)CC1 (stereo not drawn) [Compound 182, 3-(1-Acetylpiperidin-4-yl)-9-(1-((6-chloro-2-(1-methyl-1H-pyrazol-4-yl)pyridin-3-yl)amino)ethyl)-4,7-dimethyl-3,4-dihydro-5H-pyrazolo[3,4-c]isoquinolin-5-one]
IC50: < 1 µM

Cc1cc(C(C)Nc2ccc(Cl)nc2N2CCC(O)CC2)c2c(c1)c(=O)n1c3c2cnn3CCC1 (stereo not drawn) [Compound 291, 10-(1-((6-chloro-2-(4-hydroxypiperidin-1-yl)pyridin-3-yl)amino)ethyl)-8-methyl-4,5-dihydro-3H,6H-2,2a,5a-triazaaceanthrylen-6-one]
IC50: < 1 µM

CNC(=O)C1CCN(c2nc(Cl)ccc2NC(C)c2cc(C)cc3c(=O)n4c5c(cnn5CCC4)c23)CC1 (stereo not drawn) [Compound 292, 1-(6-chloro-3-((1-(8-methyl-6-oxo-4,5-dihydro-3H,6H-2,2a,5a-triazaaceanthrylen-10-yl)ethyl)amino)pyridin-2-yl)-N-methylpiperidine-4-carboxamide]
IC50: < 1 µM

CC(=O)N1CCN(c2nc(Cl)ccc2NC(C)c2cc(C)cc3c(=O)n4c5c(cnn5CCC4)c23)CC1 (stereo not drawn) [Compound 293, 10-(1-((2-(4-acetylpiprerazin-1-yl)-6-chloropyridin-3-yl)amino)ethyl)-8-methyl-4,5-dihydro-3H,6H-2,2a,5a-triazaaceanthrylen-6-one]
IC50: < 1 µM

Cc1cc(C(C)Nc2ccc(Cl)nc2-c2nnco2)c2c(c1)c(=O)n1c3c2cnn3CCC1 (stereo not drawn) [Compound 294, 10-(1-((6-chloro-2-(1,3,4-oxadiazol-2-yl)pyridin-3-yl)amino)ethyl)-8-methyl-4,5-dihydro-3H,6H-2,2a,5a-triazaaceanthrylen-6-one]
IC50: < 1 µM

Cc1cc(C(C)Nc2ccc(Cl)nc2-c2ncn(C)n2)c2c(c1)c(=O)n1c3c2cnn3CCC1 (stereo not drawn) [Compound 296, 10-(1-((6-chloro-2-(1-methyl-1H-1,2,4-triazol-3-yl)pyridin-3-yl)amino)ethyl)-8-methyl-4,5-dihydro-3H,6H-2,2a,5a-triazaaceanthrylen-6-one]
IC50: < 1 µM

Cc1cc(C(C)Nc2ccc(Cl)nc2-c2ncn(CCO)n2)c2c(c1)c(=O)n1c3c2cnn3CCC1 (stereo not drawn) [Compound 297, 10-(1-((6-chloro-2-(1-(2-hydroxyethyl)-1H-1,2,4-triazol-3-yl)pyridin-3-yl)amino)ethyl)-8-methyl-4,5-dihydro-3H,6H-2,2a,5a-triazaaceanthrylen-6-one]
IC50: < 1 µM

Cc1cc(C(C)Nc2ccc(Cl)nc2-c2nnn(C)n2)c2c(c1)c(=O)n1c3c2cnn3CCC1 (stereo not drawn) [Compound 298, 10-(1-((6-chloro-2-(2-methyl-2H-tetrazol-5-yl)pyridin-3-yl)amino)ethyl)-8-methyl-4,5-dihydro-3H,6H-2,2a,5a-triazaaceanthrylen-6-one]
IC50: < 1 µM

Cc1cc(C(C)Nc2ccc(Cl)nc2-c2cnn(C3CCOCC3)c2)c2c(c1)c(=O)n1c3c2cnn3CCC1 (stereo not drawn) [Compound 299, 10-(1-((6-chloro-2-(1-(tetrahydro-2H-pyran-4-yl)-1H-pyrazol-4-yl)pyridin-3-yl)amino)ethyl)-8-methyl-4,5-dihydro-3H,6H-2,2a,5a-triazaaceanthrylen-6-one]
IC50: < 1 µM

Cc1cc(C(C)Nc2ccc(Cl)nc2-c2cnn(CCO)c2)c2c(c1)c(=O)n1c3c2cnn3CCC1 (stereo not drawn) [Compound 300, 10-(1-((6-chloro-2-(1-(2-hydroxyethyl)-1H-pyrazol-4-yl)pyridin-3-yl)amino)ethyl)-8-methyl-4,5-dihydro-3H,6H-2,2a,5a-triazaaceanthrylen-6-one]
IC50: < 1 µM

Cc1cc(C(C)Nc2ccc(Cl)nc2-c2cnn(C3CCN(C)CC3)c2)c2c(c1)c(=O)n1c3c2cnn3CCC1 (stereo not drawn) [Compound 301]
IC50: < 1 µM

Cc1cc(C(C)Nc2ccc(Cl)nc2-c2cnn(C3CCCN(C)C3)c2)c2c(c1)c(=O)n1c3c2cnn3CCC1 (stereo not drawn) [Compound 302]
IC50: < 1 µM

Cc1cc(C(C)Nc2ccc(Cl)nc2-c2cnn(C3CCN(C)C3)c2)c2c(c1)c(=O)n1c3c2cnn3CCC1 (stereo not drawn) [Compound 303, 10-(1-((6-chloro-2-(1-(1-methylpyrrolidin-3-yl)-1H-pyrazol-4-yl)pyridin-3-yl)amino)ethyl)-8-methyl-4,5-dihydro-3H,6H-2,2a,5a-triazaaceanthrylen-6-one]
IC50: < 1 µM

Cc1cc(C(C)Nc2ccc(Cl)nc2-c2cnn(C3CN(C)C3)c2)c2c(c1)c(=O)n1c3c2cnn3CCC1 (stereo not drawn) [Compound 304, 10-(1-((6-chloro-2-(1-(1-methylazetidin-3-yl)-1H-pyrazol-4-yl)pyridin-3-yl)amino)ethyl)-8-methyl-4,5-dihydro-3H,6H-2,2a,5a-triazaaceanthrylen-6-one]
IC50: < 1 µM

Cc1cc(C(C)Nc2ccc(Cl)nc2-c2cnn(C3CCN(C(=O)N(C)C)CC3)c2)c2c(c1)c(=O)n1c3c2cnn3CCC1 (stereo not drawn) [Compound 305, 4-(4-(6-chloro-3-((1-(8-methyl-6-oxo-4,5-dihydro-3H,6H-2,2a,5a-triazaaceanthrylen-10-yl)ethyl)amino)pyridin-2-yl)-1H-pyrazol-1-yl)-N,N-dimethylpiperidine-1-carboxamide]
IC50: < 1 µM

Cc1cc(C(C)Nc2ccc(Cl)nc2-c2ccnc(C)c2)c2c(c1)c(=O)n1c3c2cnn3CCC1 (stereo not drawn) [Compound 306, 10-(1-((6-chloro-2′-methyl-[2,4′-bipyridin]-3-yl)amino)ethyl)-8-methyl-4,5-dihydro-3H,6H-2,2a,5a-triazaaceanthrylen-6-one]
IC50: < 1 µM

Cc1cc(C(C)Nc2ccc(Cl)nc2-c2cccnc2)c2c(c1)c(=O)n1c3c2cnn3CCC1 (stereo not drawn) [Compound 307, 10-(1-((6-chloro-[2,3′-bipyridin]-3-yl)amino)ethyl)-8-methyl-4,5-dihydro-3H,6H-2,2a,5a-triazaaceanthrylen-6-one]
IC50: < 1 µM

Cc1cc(C(C)Nc2ccc(Cl)nc2-c2ccc(=O)n(C)c2)c2c(c1)c(=O)n1c3c2cnn3CCC1 (stereo not drawn) [Compound 308, 10-(1-((6-chloro-1′-methyl-6′-oxo-1′,6′-dihydro-[2,3′-pyridin]-3-yl)amino)ethyl)-8-methyl-4,5-dihydro-3H,6H-2,2a,5a-triazaaceanthrylen-6-one]
IC50: < 1 µM

CNC(=O)c1ccc(-c2nc(Cl)ccc2NC(C)c2cc(C)cc3c(=O)n4c5c(cnn5CCC4)c23)cc1F (stereo not drawn) [Compound 309, 4-(6-chloro-3-((1-(8-methyl-6-oxo-4,5-dihydro-3H,6H-2,2a,5a-triazaaceanthrylen-10-yl)ethyl)amino)pyridin-2-yl)-2-fluoro-N-methylbenzamide]
IC50: < 1 µM
